From patent US7645882B2, “Inhibitor of protein modification products formation” (priority 2003, dated 2010) come the findings set out here.

Data set [1] in a line: Examination of stabilizing agent in TM-2002 hydrochloride solution. Type of data set: physicochemical. The source says:
Several kind of stabilizing agent was usually used to stabilize the medicament and the effective manner is addition of antioxidant. Particularly, the material having lower oxidation-reduction potential is effective to stabilize highly oxidized compound. Accordingly, for sodium acid sulfite (NaHSO3) and L-cystein ([…]), which are usually used in injection, the stability was examined by adding such materials to TM-2002 hydrochloride aqueous solution.
The solving state of TM-2002 hydrochloride solution added sodium acid sulfite was examined in following manner; 1 ml of purified water, sodium acid sulfite (0.5 mg) and sodium acid sulfite (1 mg) solution was prepared respectively; to these solutions, there was added 63 mg of TM-2002 hydrochloride, stirred and solved; the solutions allowed to warm to room temperature to observe the solving state. […] Accordingly, the stability of TM-2002 itself will increase by using hydrochloride.
The solving state of TM-2002 hydrochloride solution added L-cystein hydrochloride was examined in following manner; 1 mg and 2 mg of L-cystein hydrochloride were dissolved in 1 ml of purified water respectively; pH was adjusted to 6.5; to these solutions, there was added 63 mg of TM-2002 hydrochloride, stirred and solved; the solutions allowed to warm to room temperature to observe the solving state. […] In addition, the degradability was observed by thin layer chromatography (TLC/Silica-gel 60F254 (Merck Japan)/developing solvent: chloroform:methanol=9:1/detection:UV=254 nm). […] Accordingly, the present invention provides lyophilized formulation comprising L-cystein by treating TM-2002 hydrochloride solution at low temperature and lyophilizing.

Data set [2] has as its system pentosidine. As to the kind of experiment: Pentosidine production inhibiting effect with BSA and arabinose. The data set is classed as biochemical. The conditions noted are these: BSA and arabinose instead of plasma. In short, it runs like this: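 Heparinized hemodialysis-patient plasma (replaced here by BSA plus arabinose) incubated with compound at 0.8, 2.0, 5.0 mM final, 37 °C, one week. Protein TCA-precipitated, hydrolysed in 6N HCl at 110 °C for 16 h; free pentosidine quantified by reversed-phase HPLC with fluorescence (ex/em 335/385 nm) against synthetic standard.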

Data set [3] can be described thus: Solubility and stability of TM-2002 injectable lyophilized formulation. Type of data set: physicochemical. The conditions noted are these: room temperature, at 10 hours. The method, then: L-cystein hydrochloride (160 mg) was added to 80 ml of purified water, stirred and solved. The solution was adjust at pH 6.7 with 1N NaOH aqueous solution. Then 1 g of TM-2002 hydrochloride was added, stirred and solved, and the solution diluted with purified water to 100 ml with measuring flask. Such solution was divided into vial container of 50 ml by 6.3 ml each, frozen immediately with dry ice, and then stored at −80° C. to freeze completely. This was subjected to lyophilized for 3 days using lyophilizer. After lyophilizing, covered by rubber cap and sealed by aluminum cap using fastener, TM-2002 injectable lyophilized formulation was prepared.
To TM-2002 injectable lyophilized formulation prepared above, there was added 20 ml of purified water per 1 vial. […] TLC (Kiezel gel 60F254/developing solvent: CHCl3:MeOH=9:1/detection:UV=254 nm) was carried out to examine the change of ingredient. […] The result of TLC is represented in FIG. 16. When the solution was further diluted with saline, the stability was as same. […] The formulation is suitable for injectable lyophilized formulation which is prepared before use, and stable and usable.

The mark [4] stands for this setting: 63 mg in 1 ml purified water only, pH 2 to 2.5, after 24 hours.

As for `Cc1ncc2c(c1O)C(c1c(C)nn(-c3ccccc3)c1O)OC2.Cl` (centres unmarked) [compound 69, 1-(5-hydroxy-3-methyl-1-phenyl-1H-pyrazol-4-yl)-6-methyl-1,3-dihydro-furo[3,4-c]pyridin-7-ol (hydrochloric acid salt)], in data set [1] (setting [4]), the TM-2002 degradation entry is listed as “significant suppress of TM-2002 degradation was observed”. Further, the solving state entry in data set [1] (setting [4]) was “no change was observed in its solving state”; in data set [1] (63 mg in 1 ml with 0.5 mg or 1 mg sodium acid sulfite, room temperature, after 24 hours) it was “remarkable precipitates were observed”; in data set [1] (63 mg in 1 ml with 1 mg or 2 mg L-cystein hydrochloride, after 24 hours), “no change was observed in solving state”; in data set [1] (63 mg in 1 ml with 1 mg or 2 mg L-cystein hydrochloride, pH adjusted to 6.5, room temperature), “no precipitates and deposits was observed”; in data set [1] (with sodium sulfite or sodium pyrosulfite instead of sodium acid sulfite) it was “crystal precipitate was deposited”. In addition, the “stabilization (TLC)” value in data set [1] (by addition of L-cystein, room temperature) is recorded as “significantly stabilized”. The “degradability (TLC)” value in data set [1] (left over 24 hours at room temperature) is listed as “degraded very slowly”. Moreover, in data set [1] (solution with L-cystein hydrochloride, preservation at −20° C., one week), the “stability of the solution” value is on record as “stable after one week”. The “Pentosidine production rate in 5 mM of medicament (%)” value in data set [2] is on record as 2.94%. Also, the “decomposition products (TLC)” value in data set [3] is on record as “decomposition products were observed”.
